# Data reported in patent US20260242419A1, “A CYCLIC PEPTIDE FOR TRAPPING INTERLEUKIN-1 BETA” (Merck Sharp & Dohme LLC, priority 2023, published 2026).
# Starred links: 1 amine or outer side, 2 acyl side, 3 side chain; linkers in the order of their positions; H or OH if unused. Non-standard residues stand in square brackets, D forms with d. Residues, ends and D or L forms follow the SMILES beside them. X39 = CNc1ncc(-c2ccc(C[C@H]3CCN([*:1])[C@H]3C(=O)[*:2])cc2)cn1; X1 = COc1ncc(-c2ccc(C[C@H]3CCN([*:1])[C@H]3C(=O)[*:2])cc2)cn1; X22 = Nc1ncc(-c2ccc(C[C@H]3CCN([*:1])[C@H]3C(=O)[*:2])cc2)cn1; X49 = Nc1cnc(-c2ccc(C[C@H]3CCN([*:1])[C@H]3C(=O)[*:2])cc2)cn1; dPro(3S-(4-Br-benzyl)) = O=C(O)[C@@H]1NCC[C@@H]1Cc1ccc(Br)cc1; Trp(βS-Me,4-F) = C[C@@H](c1c[nH]c2cccc(F)c12)[C@H](N)C(=O)O; X15 = O=C([C@H]1[C@@H](Cc2ccc(-c3ccnnc3)cc2)CCN1[*:1])[*:2]; X33 = O=C([C@H]1[C@@H](Cc2ccc(-c3ccncc3)cc2)CCN1[*:1])[*:2]; X42 = O=C([C@H]1[C@@H](Cc2ccc(-c3cncnc3)cc2)CCN1[*:1])[*:2]; X48 = O=C([C@H]1[C@@H](Cc2ccc(-c3cccnc3)cc2)CCN1[*:1])[*:2]; Bip(4'-COOH) = N[C@@H](Cc1ccc(-c2ccc(C(=O)O)cc2)cc1)C(=O)O; X18 = Cn1ccnc1-c1ccc(C[C@H]2CCN([*:1])[C@H]2C(=O)[*:2])cc1; X43 = Cc1nocc1-c1ccc(C[C@H]2CCN([*:1])[C@H]2C(=O)[*:2])cc1; X8 = O=C([C@H]1[C@@H](Cc2ccc(-c3ccccn3)cc2)CCN1[*:1])[*:2]; dPro(4R-Bzl(4-F)) = O=C(O)[C@H]1C[C@@H](Cc2ccc(F)cc2)CN1; Ala(pyrimidin-5-yl) = N[C@@H](Cc1cncnc1)C(=O)O; Phe(4-COOH) = N[C@@H](Cc1ccc(C(=O)O)cc1)C(=O)O; Pro(cis-4-F) = O=C(O)[C@@H]1C[C@H](F)CN1; 4Pal = N[C@@H](Cc1ccncc1)C(=O)O; Cit = NC(=O)NCCC[C@H](N)C(=O)O; Dab = NCC[C@H](N)C(=O)O; Aib = CC(C)(N)C(=O)O
# Target: T1, IL-1β (Homo sapiens, UniProt P01584)
# T1 construct: purchased BioLegend 579404
# T1 sequence (P01584 117-269): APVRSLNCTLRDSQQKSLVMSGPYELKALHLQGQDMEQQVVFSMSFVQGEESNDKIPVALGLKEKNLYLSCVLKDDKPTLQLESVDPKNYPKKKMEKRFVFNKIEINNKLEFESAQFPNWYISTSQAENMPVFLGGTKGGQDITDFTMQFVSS
# Experiment: IL-6 assay in MRC5 cells: inhibition of IL-1β induced IL-6 secretion (AlphaLISA)
# Format: cell-based
# Details: inhibition of IL-1β induced IL-6 secretion in MRC5 cells; read-out: MRC5 IC50
# Method in brief: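 Compound was pre-incubated 1 h at ambient temperature with recombinant human IL-1β at 2λ EC80 before adding human lung fibroblast MRC5 cells (3000/well) in EMEM with 0.025% BSA. After overnight culture at 37 °C, 5% CO2, secreted IL-6 in conditioned medium was measured by AlphaLISA; IC50 from 4-parameter logistic fits.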
row,IC50 [pM],Compound
1,14,"C[C@@H](c1c[nH]c2cccc(F)c12)[C@@H]1NC(=O)[C@@H]2C[C@H](F)CN2C(=O)CNC(=O)[C@H](Cc2ccc(C(=O)O)cc2)NC(=O)[C@H](Cc2ccncc2)NC(=O)[C@H](Cc2ccc(-c3ccc(C(=O)O)cc3)cc2)NC(=O)[C@H]2[C@@H](Cc3ccc(Br)cc3)CCN2C(=O)CNC(=O)[C@H](CCN)NC(=O)[C@H](CCC(N)=O)NC(=O)[C@H](Cc2cncnc2)NC(=O)C(C)(C)NC(=O)[C@H](Cc2c[nH]c3ccccc23)NC(=O)[C@H](CCC(=O)O)NC(=O)C(C)(C)NC1=O [Example 51] (cyclo([4Pal][Phe(4-COOH)]G[Pro(cis-4-F)][Trp(βS-Me,4-F)][Aib]EW[Aib][Ala(pyrimidin-5-yl)]Q[Dab]G[dPro(3S-(4-Br-benzyl))][Bip(4'-COOH)]))"
2,21,"C[C@@H](c1c[nH]c2cccc(F)c12)[C@@H]1NC(=O)[C@@H]2C[C@H](F)CN2C(=O)CNC(=O)[C@H](Cc2ccc(C(=O)O)cc2)NC(=O)[C@H](Cc2ccncc2)NC(=O)[C@H](Cc2ccc(-c3ccc(C(=O)O)cc3)cc2)NC(=O)[C@H]2C[C@@H](Cc3ccc(F)cc3)CN2C(=O)CNC(=O)[C@H](CCN)NC(=O)[C@H](CCC(N)=O)NC(=O)[C@H](CCCNC(N)=O)NC(=O)C(C)(C)NC(=O)[C@H](Cc2c[nH]c3ccccc23)NC(=O)[C@H](CCC(=O)O)NC(=O)C(C)(C)NC1=O [Example 52] (cyclo([Bip(4'-COOH)][4Pal][Phe(4-COOH)]G[Pro(cis-4-F)][Trp(βS-Me,4-F)][Aib]EW[Aib][Cit]Q[Dab]G[dPro(4R-Bzl(4-F))]))"
3,18,"C[C@@H](c1c[nH]c2cccc(F)c12)[C@@H]1NC(=O)[C@@H]2C[C@H](F)CN2C(=O)CNC(=O)[C@H](Cc2ccc(C(=O)O)cc2)NC(=O)[C@H](Cc2ccncc2)NC(=O)[C@H](Cc2ccc(-c3ccc(C(=O)O)cc3)cc2)NC(=O)[C@H]2[C@@H](Cc3ccc(-c4cncnc4)cc3)CCN2C(=O)CNC(=O)[C@H](CCN)NC(=O)[C@H](CCC(N)=O)NC(=O)[C@H](Cc2cncnc2)NC(=O)C(C)(C)NC(=O)[C@H](Cc2c[nH]c3ccccc23)NC(=O)[C@H](CCC(=O)O)NC(=O)C(C)(C)NC1=O [Example 53] (cyclo([Bip(4'-COOH)][4Pal][Phe(4-COOH)]G[Pro(cis-4-F)][Trp(βS-Me,4-F)][Aib]EW[Aib][Ala(pyrimidin-5-yl)]Q[Dab]G[X42]))"
4,21,"CNc1ncc(-c2ccc(C[C@H]3CCN4C(=O)CNC(=O)[C@H](CCN)NC(=O)[C@H](CCC(N)=O)NC(=O)[C@H](Cc5cncnc5)NC(=O)C(C)(C)NC(=O)[C@H](Cc5c[nH]c6ccccc56)NC(=O)[C@H](CCC(=O)O)NC(=O)C(C)(C)NC(=O)[C@H]([C@@H](C)c5c[nH]c6cccc(F)c56)NC(=O)[C@@H]5C[C@H](F)CN5C(=O)CNC(=O)[C@H](Cc5ccc(C(=O)O)cc5)NC(=O)[C@H](Cc5ccncc5)NC(=O)[C@H](Cc5ccc(-c6ccc(C(=O)O)cc6)cc5)NC(=O)[C@@H]34)cc2)cn1 [Example 54] (cyclo([Bip(4'-COOH)][4Pal][Phe(4-COOH)]G[Pro(cis-4-F)][Trp(βS-Me,4-F)][Aib]EW[Aib][Ala(pyrimidin-5-yl)]Q[Dab]G[X39]))"
5,24,"C[C@@H](c1c[nH]c2cccc(F)c12)[C@@H]1NC(=O)[C@@H]2C[C@H](F)CN2C(=O)CNC(=O)[C@H](Cc2ccc(C(=O)O)cc2)NC(=O)[C@H](Cc2ccncc2)NC(=O)[C@H](Cc2ccc(-c3ccc(C(=O)O)cc3)cc2)NC(=O)[C@H]2[C@@H](Cc3ccc(-c4ccncc4)cc3)CCN2C(=O)CNC(=O)[C@H](CCN)NC(=O)[C@H](CCC(N)=O)NC(=O)[C@H](Cc2cncnc2)NC(=O)C(C)(C)NC(=O)[C@H](Cc2c[nH]c3ccccc23)NC(=O)[C@H](CCC(=O)O)NC(=O)C(C)(C)NC1=O [Example 55] (cyclo([Bip(4'-COOH)][4Pal][Phe(4-COOH)]G[Pro(cis-4-F)][Trp(βS-Me,4-F)][Aib]EW[Aib][Ala(pyrimidin-5-yl)]Q[Dab]G[X33]))"
6,22,"C[C@@H](c1c[nH]c2cccc(F)c12)[C@@H]1NC(=O)[C@@H]2C[C@H](F)CN2C(=O)CNC(=O)[C@H](Cc2ccc(C(=O)O)cc2)NC(=O)[C@H](Cc2ccncc2)NC(=O)[C@H](Cc2ccc(-c3ccc(C(=O)O)cc3)cc2)NC(=O)[C@H]2[C@@H](Cc3ccc(-c4cccnc4)cc3)CCN2C(=O)CNC(=O)[C@H](CCN)NC(=O)[C@H](CCC(N)=O)NC(=O)[C@H](Cc2cncnc2)NC(=O)C(C)(C)NC(=O)[C@H](Cc2c[nH]c3ccccc23)NC(=O)[C@H](CCC(=O)O)NC(=O)C(C)(C)NC1=O [Example 56] (cyclo([Bip(4'-COOH)][4Pal][Phe(4-COOH)]G[Pro(cis-4-F)][Trp(βS-Me,4-F)][Aib]EW[Aib][Ala(pyrimidin-5-yl)]Q[Dab]G[X48]))"
7,19,"C[C@@H](c1c[nH]c2cccc(F)c12)[C@@H]1NC(=O)[C@@H]2C[C@H](F)CN2C(=O)CNC(=O)[C@H](Cc2ccc(C(=O)O)cc2)NC(=O)[C@H](Cc2ccncc2)NC(=O)[C@H](Cc2ccc(-c3ccc(C(=O)O)cc3)cc2)NC(=O)[C@H]2[C@@H](Cc3ccc(-c4cnc(N)cn4)cc3)CCN2C(=O)CNC(=O)[C@H](CCN)NC(=O)[C@H](CCC(N)=O)NC(=O)[C@H](Cc2cncnc2)NC(=O)C(C)(C)NC(=O)[C@H](Cc2c[nH]c3ccccc23)NC(=O)[C@H](CCC(=O)O)NC(=O)C(C)(C)NC1=O [Example 57] (cyclo([Bip(4'-COOH)][4Pal][Phe(4-COOH)]G[Pro(cis-4-F)][Trp(βS-Me,4-F)][Aib]EW[Aib][Ala(pyrimidin-5-yl)]Q[Dab]G[X49]))"
8,37,"C[C@@H](c1c[nH]c2cccc(F)c12)[C@@H]1NC(=O)[C@@H]2C[C@H](F)CN2C(=O)CNC(=O)[C@H](Cc2ccc(C(=O)O)cc2)NC(=O)[C@H](Cc2ccncc2)NC(=O)[C@H](Cc2ccc(-c3ccc(C(=O)O)cc3)cc2)NC(=O)[C@H]2[C@@H](Cc3ccc(-c4ccnnc4)cc3)CCN2C(=O)CNC(=O)[C@H](CCN)NC(=O)[C@H](CCC(N)=O)NC(=O)[C@H](Cc2cncnc2)NC(=O)C(C)(C)NC(=O)[C@H](Cc2c[nH]c3ccccc23)NC(=O)[C@H](CCC(=O)O)NC(=O)C(C)(C)NC1=O [Example 58] (cyclo([Bip(4'-COOH)][4Pal][Phe(4-COOH)]G[Pro(cis-4-F)][Trp(βS-Me,4-F)][Aib]EW[Aib][Ala(pyrimidin-5-yl)]Q[Dab]G[X15]))"
9,18,"C[C@@H](c1c[nH]c2cccc(F)c12)[C@@H]1NC(=O)[C@@H]2C[C@H](F)CN2C(=O)CNC(=O)[C@H](Cc2ccc(C(=O)O)cc2)NC(=O)[C@H](Cc2ccncc2)NC(=O)[C@H](Cc2ccc(-c3ccc(C(=O)O)cc3)cc2)NC(=O)[C@H]2[C@@H](Cc3ccc(-c4cnc(N)nc4)cc3)CCN2C(=O)CNC(=O)[C@H](CCN)NC(=O)[C@H](CCC(N)=O)NC(=O)[C@H](Cc2cncnc2)NC(=O)C(C)(C)NC(=O)[C@H](Cc2c[nH]c3ccccc23)NC(=O)[C@H](CCC(=O)O)NC(=O)C(C)(C)NC1=O [Example 59] (cyclo([Bip(4'-COOH)][4Pal][Phe(4-COOH)]G[Pro(cis-4-F)][Trp(βS-Me,4-F)][Aib]EW[Aib][Ala(pyrimidin-5-yl)]Q[Dab]G[X22]))"
10,18,"COc1ncc(-c2ccc(C[C@H]3CCN4C(=O)CNC(=O)[C@H](CCN)NC(=O)[C@H](CCC(N)=O)NC(=O)[C@H](Cc5cncnc5)NC(=O)C(C)(C)NC(=O)[C@H](Cc5c[nH]c6ccccc56)NC(=O)[C@H](CCC(=O)O)NC(=O)C(C)(C)NC(=O)[C@H]([C@@H](C)c5c[nH]c6cccc(F)c56)NC(=O)[C@@H]5C[C@H](F)CN5C(=O)CNC(=O)[C@H](Cc5ccc(C(=O)O)cc5)NC(=O)[C@H](Cc5ccncc5)NC(=O)[C@H](Cc5ccc(-c6ccc(C(=O)O)cc6)cc5)NC(=O)[C@@H]34)cc2)cn1 [Example 60] (cyclo([Bip(4'-COOH)][4Pal][Phe(4-COOH)]G[Pro(cis-4-F)][Trp(βS-Me,4-F)][Aib]EW[Aib][Ala(pyrimidin-5-yl)]Q[Dab]G[X1]))"
11,22,"C[C@@H](c1c[nH]c2cccc(F)c12)[C@@H]1NC(=O)[C@@H]2C[C@H](F)CN2C(=O)CNC(=O)[C@H](Cc2ccc(C(=O)O)cc2)NC(=O)[C@H](Cc2ccncc2)NC(=O)[C@H](Cc2ccc(-c3ccc(C(=O)O)cc3)cc2)NC(=O)[C@H]2[C@@H](Cc3ccc(-c4ccccn4)cc3)CCN2C(=O)CNC(=O)[C@H](CCN)NC(=O)[C@H](CCC(N)=O)NC(=O)[C@H](Cc2cncnc2)NC(=O)C(C)(C)NC(=O)[C@H](Cc2c[nH]c3ccccc23)NC(=O)[C@H](CCC(=O)O)NC(=O)C(C)(C)NC1=O [Example 61] (cyclo([Bip(4'-COOH)][4Pal][Phe(4-COOH)]G[Pro(cis-4-F)][Trp(βS-Me,4-F)][Aib]EW[Aib][Ala(pyrimidin-5-yl)]Q[Dab]G[X8]))"
12,21,"Cc1nocc1-c1ccc(C[C@H]2CCN3C(=O)CNC(=O)[C@H](CCN)NC(=O)[C@H](CCC(N)=O)NC(=O)[C@H](Cc4cncnc4)NC(=O)C(C)(C)NC(=O)[C@H](Cc4c[nH]c5ccccc45)NC(=O)[C@H](CCC(=O)O)NC(=O)C(C)(C)NC(=O)[C@H]([C@@H](C)c4c[nH]c5cccc(F)c45)NC(=O)[C@@H]4C[C@H](F)CN4C(=O)CNC(=O)[C@H](Cc4ccc(C(=O)O)cc4)NC(=O)[C@H](Cc4ccncc4)NC(=O)[C@H](Cc4ccc(-c5ccc(C(=O)O)cc5)cc4)NC(=O)[C@@H]23)cc1 [Example 62] (cyclo([Bip(4'-COOH)][4Pal][Phe(4-COOH)]G[Pro(cis-4-F)][Trp(βS-Me,4-F)][Aib]EW[Aib][Ala(pyrimidin-5-yl)]Q[Dab]G[X43]))"
13,18,"C[C@@H](c1c[nH]c2cccc(F)c12)[C@@H]1NC(=O)[C@@H]2C[C@H](F)CN2C(=O)CNC(=O)[C@H](Cc2ccc(C(=O)O)cc2)NC(=O)[C@H](Cc2ccncc2)NC(=O)[C@H](Cc2ccc(-c3ccc(C(=O)O)cc3)cc2)NC(=O)[C@H]2[C@@H](Cc3ccc(-c4nccn4C)cc3)CCN2C(=O)CNC(=O)[C@H](CCN)NC(=O)[C@H](CCC(N)=O)NC(=O)[C@H](Cc2cncnc2)NC(=O)C(C)(C)NC(=O)[C@H](Cc2c[nH]c3ccccc23)NC(=O)[C@H](CCC(=O)O)NC(=O)C(C)(C)NC1=O [Example 63] (cyclo([Bip(4'-COOH)][4Pal][Phe(4-COOH)]G[Pro(cis-4-F)][Trp(βS-Me,4-F)][Aib]EW[Aib][Ala(pyrimidin-5-yl)]Q[Dab]G[X18]))"
